Measured values: patent US12011444B2, “N-substituted indole derivatives as PGE2 receptor modulators” (Idorsia Pharmaceuticals Ltd, priority 2015, dated 2024)

Columns and labels:
EP2 = EP2 (Homo sapiens (Human), UniProt P43116);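 also: antagonism of PGE2-stimulated cAMP accumulation in SF295 human glioblastoma cells with endogenous EP2, cAMP read by HTRF, expressed relative to DMSO control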
Excerpt: Human tumor cell lines expressing endogenously either EP4 or EP2 are used and cAMP accumulation in cells upon PGE2 stimulation is monitored. SF295 glioblastoma cells express high endogenous EP2 and no EP4, whereas BT549 breast cancer cells, express high endogenous EP4 levels and very low EP2 levels.
As a detection method for cAMP the HTRF (homogeneous time resolved fluorescence) Cisbio kit (HTRF cAMP dynamic 2 kit 20′000 tests Cisbio Cat. #62AM4PEC) was used, which is based on a competitive immunoassay using a Cryptate-labeled anti-cAMP antibody and d2-labeled cAMP. Native cAMP produced by cells or unlabeled cAMP (for the standard curve) compete with exogenously added d2-labeled cAMP (acceptor) for binding to monoclonal anti-cAMP-Eu3+Cryptate (donor). A FRET signal (Fluorescence Resonance Energy Transfer) is obtained only if the labeled anti-cAMP antibody binds the d2 labelled cAMP, thus the specific signal (i.e. energy transfer) is inversely proportional to the concentration of cAMP in the standard or sample.
The SF295 cells (NCI/No. 0503170) are detached from culture dishes with a cell dissociation buffer (Invitrogen, 13151-014), and collected in growing medium (GM: RPM11640 (Invitrogen 21875)/10% FCS, 1% Penicilin/streptomycin). Cells are counted washed and resuspended in assay buffer (AB; HBSS, 20 mM HEPES, 0.2% BSA; 2 mM IBMX). 4,000 cells in 5 μl of AB are seeded per well of a small volume 384 well plate (black with flat bottom, Greiner 784076).
PGE2 (Cayman 14010, stock solution: 75 μM in DMSO) is used as agonist at 75 nM final concentration, corresponding to EC80.
Two point five microliters of diluted compounds are transferred into the assay plate. Plate is pre-incubated 45 minutes at room temperature. Subsequently, 2.5 microliters of PGE2 (final conc. 75 nM) are transferred into the assay plate. Plate is incubated 30 minutes at room temperature. Five μl of each donor (anti-cAMP cryptate) and acceptor (cAMP-d2) are added and the plate is incubated another hour at room temperature in the dark and then read using a BMG LABTECH PHERAstar reader (Excitation: 337 nm, Emission: 620 and 665 nm).
The obtained Delta F (fluorescence) values (665 nm/620 nM) are converted into % cAMP values using the measurements of the cAMP calibrator provided in the kit. For each compound concentration the percentage of cAMP compared to DMSO control value as average±STDEV (each concentration is measured in duplicate) is calculated.
IC50 values and curves are generated with XLfit software (IDBS) using Dose-Response One Site model 203. When compounds were measured multiple times, mean values are given.

EP4 = EP4 (Homo sapiens (Human), UniProt P35408); assay: hEP4 cAMP assay (BT549 breast cancer cells, HTRF cAMP); assay type: cell-based; settings: antagonistic activity; mean values where measured multiple times
EP4, sequence (P35408 whole entry): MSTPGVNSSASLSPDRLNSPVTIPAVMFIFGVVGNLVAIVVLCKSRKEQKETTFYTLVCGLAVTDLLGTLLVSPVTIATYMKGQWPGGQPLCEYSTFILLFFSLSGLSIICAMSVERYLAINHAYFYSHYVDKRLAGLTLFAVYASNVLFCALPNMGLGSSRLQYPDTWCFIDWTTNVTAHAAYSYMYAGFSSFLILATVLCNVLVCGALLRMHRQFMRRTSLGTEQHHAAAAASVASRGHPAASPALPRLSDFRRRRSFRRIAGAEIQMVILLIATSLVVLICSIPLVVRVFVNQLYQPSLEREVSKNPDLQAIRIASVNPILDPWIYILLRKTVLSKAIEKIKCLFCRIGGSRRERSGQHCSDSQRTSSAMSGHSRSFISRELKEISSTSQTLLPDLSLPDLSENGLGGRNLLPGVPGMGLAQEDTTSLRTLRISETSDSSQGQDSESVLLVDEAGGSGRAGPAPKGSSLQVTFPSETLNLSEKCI
Method: Plate is pre-incubated 45 minutes at room temperature. Subsequently, 2.5 microliters of PGE2 (final conc. 6 nM) are transferred into the assay plate. Plate is incubated 30 minutes at room temperature.

EP2, sequence (P43116 whole entry): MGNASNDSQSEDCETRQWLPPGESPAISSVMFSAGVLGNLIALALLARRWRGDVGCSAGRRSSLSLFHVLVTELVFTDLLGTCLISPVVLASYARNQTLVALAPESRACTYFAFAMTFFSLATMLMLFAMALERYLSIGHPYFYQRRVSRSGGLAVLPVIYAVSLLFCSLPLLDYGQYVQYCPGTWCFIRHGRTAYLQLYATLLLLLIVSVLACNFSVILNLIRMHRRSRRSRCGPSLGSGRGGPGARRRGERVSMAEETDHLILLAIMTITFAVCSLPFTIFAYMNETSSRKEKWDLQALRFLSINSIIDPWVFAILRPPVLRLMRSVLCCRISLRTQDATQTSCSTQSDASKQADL

| Compound | IC50 (EP2) [nM] | IC50 (EP4) [nM] |
| --- | --- | --- |
| COc1cc(F)cc2c1cc(C)n2CCNc1cc(-c2ccc(-c3oc(CCC(=O)O)nc3C)cc2)ncn1 [compound 651] | 166 | 257 |
| COc1ccc(F)c2c1cc(C)n2CCNc1cc(-c2ccc(-c3oc(CCC(=O)O)nc3C)cc2)ncn1 [compound 652] | 60 | 136 |
| Cc1nc(CCC(=O)O)oc1-c1ccc(-c2cc(NCCn3c(C)cc4c(C)cc(F)c(F)c43)ncn2)cc1 [compound 653] | 428 | 527 |
| COc1ccc(F)c2c1cc(C)n2CCNc1cc(-c2ccc(C(=O)O)c(Oc3ccc(F)cc3)c2)ncn1 [compound 654] | 26 | 313 |
| COc1cc(F)c(F)c2c1cc(C)n2CCNc1cc(-c2ccc(-c3oc(CCC(=O)O)nc3C)cc2)ncn1 [compound 655] | 152 | 191 |
| CCOc1cc(-c2cc(NCCn3c(C)cc4c(OC)cc(F)c(F)c43)ncn2)cc(F)c1-c1nnn[nH]1 [compound 656] | 52 | 89 |
| CCOc1cc(-c2cc(NCCn3c(C)cc4c(C)cc(F)c(F)c43)ncn2)cc(F)c1-c1nnn[nH]1 [compound 657] | 71 | 189 |
| CCOc1cc(-c2cc(NCCn3c(C)cc4c(OC)cc(F)cc43)ncn2)cc(F)c1-c1nnn[nH]1 [compound 658] | 24 | 287 |
| CCNc1cc(-c2cc(NCCn3c(C)cc4c5c(cc(Cl)c43)OCO5)ncn2)ccc1-c1nnn[nH]1 [compound 659, [2-(5-Chloro-7-methyl-[1,3]dioxolo[4,5-e]indol-6-yl)-ethyl]-{6-[3-ethylamino-4-(1H-tetrazol-5-yl)-phenyl]-pyrimidin-4-yl}-amine] | 6 | 54 |

Continued, values first:

| IC50 (EP2) [nM] | IC50 (EP4) [nM] | Compound |
| --- | --- | --- |
| 16 | 303 | CCOc1cc(-c2cc(NCCn3c(C)cc4c(C)cc(F)cc43)ncn2)cc(F)c1-c1nnn[nH]1 [compound 660] |
| 4 | 39 | CCOc1cc(-c2cc(NCCn3c(C)cc4c(OC)ccc(F)c43)ncn2)ccc1-c1nnn[nH]1 [compound 661] |
| 8 | 136 | CCOc1cc(-c2cc(NCCn3c(C)cc4c(OC)ccc(Cl)c43)ncn2)ccc1-c1nnn[nH]1 [compound 662] |
| 4 | 95 | CCOc1cc(-c2cc(NCCn3c(C)cc4c(OC)cccc43)ncn2)ccc1-c1nnn[nH]1 [compound 664] |
| 2 | 13 | CCNc1cc(-c2cc(NCCn3c(C)cc4c(OC)ccc(F)c43)ncn2)ccc1-c1nnn[nH]1 [compound 665, {6-[3-Ethylamino-4-(1H-tetrazol-5-yl)-phenyl]-pyrimidin-4-yl}-[2-(7-fluoro-4-methoxy-2-methyl-indol-1-yl)-ethyl]-amine] |
| 7 | 40 | CCNc1cc(-c2cc(NCCn3c(C)cc4c(OC)ccc(Cl)c43)ncn2)ccc1-c1nnn[nH]1 [compound 666, [2-(7-Chloro-4-methoxy-2-methyl-indol-1-yl)-ethyl]-{6-[3-ethylamino-4-(1H-tetrazol-5-yl)-phenyl]-pyrimidin-4-yl}-amine] |
| 2 | 17 | CCNc1cc(-c2cc(NCCn3c(C)cc4c(OC)cccc43)ncn2)ccc1-c1nnn[nH]1 [compound 667, {6-[3-Ethylamino-4-(1H-tetrazol-5-yl)-phenyl]-pyrimidin-4-yl}-[2-(4-methoxy-2-methyl-indol-1-yl)-ethyl]-amine] |
| 8 | 22 | CCNc1cc(-c2cc(NCCn3c(C)cc4c(C)ccc(F)c43)ncn2)ccc1-c1nnn[nH]1 [compound 668, {6-[3-Ethylamino-4-(1H-tetrazol-5-yl)-phenyl]-pyrimidin-4-yl}-[2-(7-fluoro-2,4-dimethyl-indol-1-yl)-ethyl]-amine] |
| 2 | 644 | CCOc1cc(-c2cc(NCCn3c(C)cc4ccccc43)ncn2)ccc1-c1nnn[nH]1 [compound 669] |
